Biological target: T1, TNKS1 (Homo sapiens, UniProt O95271)
T1 sequence (O95271 1-1327): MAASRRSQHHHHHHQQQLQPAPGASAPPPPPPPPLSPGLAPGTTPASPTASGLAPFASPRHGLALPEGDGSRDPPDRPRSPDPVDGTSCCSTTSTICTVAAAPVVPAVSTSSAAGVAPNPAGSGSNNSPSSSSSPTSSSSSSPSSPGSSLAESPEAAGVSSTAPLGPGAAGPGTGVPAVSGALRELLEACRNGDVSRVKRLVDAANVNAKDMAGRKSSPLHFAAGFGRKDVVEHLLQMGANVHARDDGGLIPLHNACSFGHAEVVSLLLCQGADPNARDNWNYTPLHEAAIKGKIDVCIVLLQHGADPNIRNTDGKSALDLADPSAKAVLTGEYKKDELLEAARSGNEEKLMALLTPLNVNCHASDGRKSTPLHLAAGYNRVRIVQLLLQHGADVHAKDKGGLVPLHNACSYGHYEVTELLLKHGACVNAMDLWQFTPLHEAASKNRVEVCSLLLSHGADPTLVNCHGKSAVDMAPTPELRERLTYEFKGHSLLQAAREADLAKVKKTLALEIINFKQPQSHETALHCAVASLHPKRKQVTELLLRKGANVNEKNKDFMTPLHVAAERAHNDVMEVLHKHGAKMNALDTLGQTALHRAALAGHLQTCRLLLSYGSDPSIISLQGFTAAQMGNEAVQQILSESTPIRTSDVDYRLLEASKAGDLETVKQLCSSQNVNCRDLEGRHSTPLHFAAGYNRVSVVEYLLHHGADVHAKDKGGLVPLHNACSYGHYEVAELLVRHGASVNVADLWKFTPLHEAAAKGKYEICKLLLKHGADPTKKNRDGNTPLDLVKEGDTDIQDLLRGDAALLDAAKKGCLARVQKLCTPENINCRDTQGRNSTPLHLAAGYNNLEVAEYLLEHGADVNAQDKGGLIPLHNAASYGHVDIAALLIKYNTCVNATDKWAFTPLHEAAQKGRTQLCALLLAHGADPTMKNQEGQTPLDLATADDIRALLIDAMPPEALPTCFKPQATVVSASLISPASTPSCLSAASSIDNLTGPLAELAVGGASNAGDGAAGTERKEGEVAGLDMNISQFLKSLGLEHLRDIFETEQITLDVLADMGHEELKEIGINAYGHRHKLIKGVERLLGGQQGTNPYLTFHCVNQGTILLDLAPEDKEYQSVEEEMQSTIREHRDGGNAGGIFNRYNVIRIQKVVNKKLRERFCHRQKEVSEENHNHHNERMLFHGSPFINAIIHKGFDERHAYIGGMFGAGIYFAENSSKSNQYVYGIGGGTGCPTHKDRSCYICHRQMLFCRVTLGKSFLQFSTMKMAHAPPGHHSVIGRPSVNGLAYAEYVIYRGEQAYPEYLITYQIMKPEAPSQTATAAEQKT
Test: Modified TNKS1 Assay 3 (BPS kit #80573, biotin-NAD+, 96 well)
Assay type: biochemical
Conditions: human TNKS1, BPS kit #80573, 96 well
Method in brief: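 Chemiluminescent assay of TNKS1-catalysed ribosylation of a protein substrate with biotin-labelled NAD+, detected via streptavidin-HRP; run per kit protocol. Inhibition lowers the signal, and IC50 is the compound concentration halving the normalised readout.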

O=C(Nc1ccc(NC(=O)c2[nH]cnc2C(=O)NCCN2CCCCC2)cn1)c1ccc(F)cc1Cl [Example 110, N^5-{6-[(2-chloro-4-fluorobenzoyl)amino]pyridin-3-yl}-N^4-[2-(piperidin-1-yl)ethyl]-1H-imidazole-4,5-dicarboxamide]
IC50: 40 nM

Source: patent publication US9884063B2, “Amido-substituted azole compounds” (Bayer Pharma Aktiengesellschaft, priority 2014, dated 2018)
